Results as given in patent US12590130B2, “Bipartite molecules and uses thereof in treating diseases associated with abnormal protein aggregates” (ACADEMIA SINICA, priority 2014, dated 2026).

How the values were obtained:
[1] = Solubility of therapeutic peptides; format: physicochemical
Experimental: In this study, the rational design was tested for HD. Several bipartite therapeutic peptides containing 8 consecutive arginines (8R) attached to a stretch of consecutive glutamines (polyQ) were synthesized and their biological activity of decreasing the aggregation propensity of the mHtt protein was investigated. The length of the polyQ of these bipartite peptides was 5 (8R5Q), 10 (8R10Q), 15 (8R15Q) or 20 (8R20Q) (Table 2).

[2] = system: 109QmHtt aggregates; experiment: TIRF microscopy of mHtt aggregates in Neuro2a cells; format: cell-based; conditions: Neuro2a cells expressing 109QmHtt
Experimental: FIG. 3. Diagrams showing the co-localization of tested bipartite peptides with the 109QmHtt aggregates. Panel A: Structure of TAMRA-labeled 8R10Q used in this study. Panel B: Epifluorescence micrographs of Neuro2a cells expressing 109QmHtt treated with TAMRA-8R10Q (8R10Q) at various time points. Note the co-localization of 8R10Q and 109QmHttGFP aggregates (GFP) from 8-24 hours (arrows). Scale bar: 10 μm. Panel C: TIRF micrographs of the Neuro2a expressing 109QmHtt treated with water or peptides as indicated at various time points. Note the decrease in aggregate size in 8R10Q and 8R15Q-treated cells. Panel D: Quantitation of the size of individual aggregates in Neuro2a at 8 hours (left) and 24 hours (right) after peptide treatment. […] Panel E: Quantitation of the number of aggregates in 20 Neuro2a cells at 12 hours (left) and 24 hours (right) after peptide treatment. Both the 8R10Q and 8R15Q increased the number of aggregates. Statistics performed with one way ANOVA. **p<0.01; ***p<0.001.
To probe into the details of the effect of peptide on the mHtt aggregates, the parameters of the mHtt aggregates were visualized and measured using the Total Internal Reflection Fluorescence (TIRF) microscopy. […] The number of aggregates in 20 cells was also calculated. 8R10Q and 8R15Q increased the number of the aggregates by 4-5 fold (FIG. 3, panel E).

[3] = system: Neuro2a cells expressing 109QmHtt; experiment: Retinoic acid-induced neurite outgrowth; format: cell-based, mouse; conditions: 109QmHtt cells; vs water or scrambled control
Experimental: FIG. 5. Therapeutic effect of 8R10Q and 8R15Q in 109QmHtt-expressing cells. Panel A: Cell viability assay by MTT in Neuro2a cells expressing 25QHtt (left) or 109QmHtt (right) treated with H2O2 at 50 μM and the indicated peptide. Panel B: Cell growth curve of Neuro2a cells expressing 25QHtt or 109QmHtt treated with indicated peptide. The cells in right subpanel were further treated with H2O2 at 12.5 μM 16 hours after transfection. 109QmHtt cells growth was slower than that of the 25QHtt cells. 8R10Q treatment rescued the slow growth of Neuro2a cells by 109QmHtt with or without H2O2. Panel C: Micrographs of the phase contrast and fluorescent images of retinoic acid-differentiated Neu2a cells expressing GFP-25QHtt or GFP-109QmHtt (GFP) treated with the indicated peptide. Note the neurites of the differentiated cells. Panel D: Quantitation of the percentage of differentiated cells with neurites. Fewer 109QmHtt-expressing cells had neurites vs. 25QHtt-expressing cells. […] The experiments were conducted in triplicate and repeated twice. Statistical analysis was performed with one way ANOVA, *p<0.05; **p<0.01; ***p<0.001, ns: not significant.
Retinoic acid (RA) induced the differentiation of Neuro2a cells with neurite outgrowth. 109QmHtt decreased the number of cells bearing RA-induced neurites relative to 25QHtt (FIG. 5, panels C and D).

[4] = system: R6/2 transgenic mice; experiment: Neuropathology of R6/2 transgenic mice; format: in vivo, mouse
Source text: FIG. 7. Amelioration of neuronal damage of 13 week-old R6/2 mice by 8R10Q peptide. Panel A: Micrographs of the Nissl stain sections of cortex (CTX) of WT and R6/2 mice. The cortex and its thickness are highlighted by the dashed lines and red solid lines, respectively. Panel B: Quantitation of the cortical thickness. Note the decrease in cortical thickness in R6/2 mice which was reversed by the 8R10Q. […]: Micrographs (panel D) and (panel F) show the corresponding quantitation of the Nissl stained sections of the cortex and striatum, respectively. Note the decrease in the number of neurons, which was reversed by 8R10Q. N=3/group, each bar represents the average of 5 sections. Statistical analysis performed with one way ANOVA, *p<0.05; ***p<0.001, ns: not significant.
FIG. 8. Decrease in mHtt aggregates and glial pathology in 13-week-old R6/2 mice by 8R10Q peptide treatment. Panel A: Micrographs and corresponding quantitation (panel B) of the immunostained sections of cortex (CTX) and striatum with EM48 antibody. The brown dots show the mHtt aggregates. The left subpanels of panel B show the quantitative data with respect to the total area occupied by the aggregates, and the right, the intensity of individual aggregates. Panel C: Photographs of the immunofluorescent-stained sections of the cortex of R6/2 mice with anti-GFAP antibody. […] Panel E: Micrographs of the immunostained sections of the cortex (CTX) and striatum of WT and R6/2 mice with anti-Iba1 antibody. […] N=3/group. Each bar represented an average of 15 sections/mouse group. Statistics were performed with Student's t test for panels B and D, but with one way ANOVA, *p<0.05; **p<0.01; ***p<0.001, ns: not significant.
To correlate the beneficial effect with the aggregates of mHtt, immunohistochemistry was performed to calculate the areas occupied by the aggregates per unit area (150 μm^2). The method was selected because the frequent clustering of the aggregates into conglomerates rendered an accurate count of the aggregate number very difficult.

H-RRRRRRRRWDQQQQQQQQQQ-NH2 [Peptide 8R10Q, NH2-(R)8-W-D-(Q)10-CONH2]
Solubility (DMEM/10% FBS) ([1]; DMEM/10% FBS): Soluble
solubility in water or culture medium ([1]; water or culture medium): highly soluble
average size of the aggregates [2]: 0.3 μm^2
RA-induced neurite outgrowth [3]: significantly reversed the defect in neurite outgrowth
cortical thickness ([4]; 13 week-old R6/2 mice): prevented cortical thinning
loss of neurons in cortex and striatum ([4]; R6/2 mice, intranasal): significantly prevented
intensity of mHtt aggregates ([4]; cortex and striatum): significantly decreased
tau signals ([4]; cortex and striatum of R6/2 mice): significantly enhanced
decrease in areas of mHtt aggregates ([4]; cortex and striatum, vs PBS, EM48 immunohistochemistry): ~60%
numbers of GFAP-positive astrocytes ([4]; cortex of R6/2 mice): significant decrease
numbers of Iba-1-positive microglia ([4]; cortex of R6/2 mice): significant decrease
